In paper PMC6358602, “The catalytic activity and secretion of zebrafish RNases are essential for their in vivo function in motor neurons and vasculature” (Scientific Reports, 2019):

Target: T1, human angiogenin (hANG) (Homo sapiens, UniProt P03950)
T1 construct: gene ANG; [Met−1]-form
Assay: fluorogenic RNase activity assay with and without NCI-65828 (Fig. 1E)
Type: biochemical

T1 sequence (P03950 25-147): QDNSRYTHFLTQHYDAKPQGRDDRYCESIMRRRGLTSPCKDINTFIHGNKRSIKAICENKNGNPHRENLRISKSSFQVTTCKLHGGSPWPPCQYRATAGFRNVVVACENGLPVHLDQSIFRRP

Nc1ccc(/N=N/c2ccc(-c3ccc(O)cc3)cc2)c2ccc(S(=O)(=O)O)cc12 [NCI-65828, 8-amino-5-(4′-hydroxybiphenyl-4-azo) napathlene-2-sulphate]
fluorogenic RNase activity assay with and without NCI-65828 (Fig. 1E): Enzyme kinetic data for Rnasel and hANG native protein and in the presence of NCI-65828.
